A word on the EC50: it is the concentration needed to bring the measured effect to its halfway point. Broadly, the pKa is the negative logarithm of the acid dissociation constant. A high value points to a group that holds its proton tightly.

One series is described as follows: Concentration required for half-maximal inhibition of CpG-ODN effect on thymidine uptake by WEHI 231 murine B-cells in the presence of alpha-sIgM. Format: functional, cell-based. The following applies: Mus musculus, WEHI231.
With `CCN(CC)CCCC(C)Nc1ccnc2cc(Cl)ccc12` (stereo not given) [CHLOROQUINE], the EC50 amounted to 0.11 µM. Consider `CC(CCCC(C)(C)O)Nc1cc(-c2ccc3ccccc3c2)nc2ccccc12` (stereo not given), for which the EC50 turned out to be 1.15 µM. Same read-out and setting: under `CN(C)CCCNc1ccnc2ccccc12` stands 4.4 µM.

Regarding `CN(C)CCNc1cc(/C=C/c2ccccc2)nc2ccccc12`, the EC50 is 0.0065 µM. Still for that read-out and setting: under `CN(C)CCN(C)c1cc(-c2ccc3ccccc3c2)nc2ccccc12` stands 0.416 µM; under `O=C(CCCO)NCCCN1CCN(CCCNc2cc(-c3ccc4ccccc4c3)nc3ccccc23)CC1`, 0.0251 µM. Same read-out and setting: under `CN(C)CCCCCCNc1cc(-c2ccc3ccccc3c2)nc2ccccc12` stands 0.0059 µM; under `OCCCCCCNc1cc(-c2ccc3ccccc3c2)nc2ccccc12`, 0.17 µM; under `CN1CCN(Cc2cc(Nc3cc(-c4ccc5ccccc5c4)nc4ccccc34)cc(CN3CCN(C)CC3)c2O)CC1`, 0.00024 µM. Still for that read-out and setting: under `CN(C)CCCCNc1cc(-c2ccc3ccccc3c2)nc2ccccc12` stands 0.004 µM; under `CN(C)CCOc1cc(-c2ccc3ccccc3c2)nc2ccccc12`, 0.478 µM. As for `Oc1ccc(Nc2cc(-c3ccc4ccccc4c3)nc3ccccc23)cc1`, the EC50 amounted to 0.32 µM. The same measure, in the same setting: under `CN(C)CCNc1cc(-c2ccc(C(F)(F)F)cc2)nc2ccccc12` stands 0.155 µM. The same measure, in the same setting: to `OCCOCCNc1cc(-c2ccc3ccccc3c2)nc2ccccc12` belongs 0.33 µM; to `CN(C)CCCNc1cc(-c2ccc3ccccc3c2)nc2ccccc12`, 0.011 µM; to `CN(C)CCNc1cc(-c2ccc3ccc4ccccc4c3c2)nc2ccccc12`, 0.011 µM.

`Cc1ccc(-c2cc(NCCN(C)C)c3ccccc3n2)cc1`: the EC50 is 0.0123 µM. With `Cc1ccc(-c2cc(NCCCN(C)C)c3ccccc3n2)cc1`, the EC50 turned out to be 0.0115 µM. On the same count and under the same terms, under `CN(C)CCNC(=O)c1cc(-c2ccc3ccccc3c2)nc2ccccc12` stands greater than 10 µM. On to `CN(C)CCCCNc1ccnc2ccccc12`, for which the EC50 was 0.316 µM. Regarding `CN(C)CCNc1cc(-c2cccc3ccccc23)nc2ccccc12`, the EC50 is 0.0398 µM.

On to `Oc1c(CN2CCCC2)cc(Nc2cc(-c3ccc4ccccc4c3)nc3ccccc23)cc1CN1CCCC1`, for which the EC50 came out at 0.0012 µM.

As to `Oc1c(CN2CCOCC2)cc(Nc2cc(-c3ccc4ccccc4c3)nc3ccccc23)cc1CN1CCOCC1`, the 50% effective concentration (EC50) was determined as 0.01 µM. The same measure, in the same setting: under `CC(Nc1cc(-c2ccc3ccccc3c2)nc2ccccc12)C(O)c1ccccc1` (stereo not given) stands 1 µM. On the same count and under the same terms, under `CC(C)(C)OC(=O)NCCNc1cc(-c2ccc3ccccc3c2)nc2ccccc12` stands 0.57 µM. Regarding `CCCCc1ccc(Nc2cc(-c3ccc4ccccc4c3)nc3ccccc23)cc1`, the EC50 was greater than 10 µM.

As for `CN(C)CCNc1cc(-c2ccc3ccccc3c2)nc2ccccc12`, the EC50 came out at 0.0091 µM. For `CN(C)CCSc1cc(-c2ccc3ccccc3c2)nc2ccccc12`, the EC50 worked out at 2.4 µM. Same read-out and setting: to `CCN(CC)CCCC(C)Nc1cc(-c2ccccc2)nc2cc(Cl)ccc12` (stereo not given) belongs 0.0513 µM; to `OCCc1ccc(Nc2cc(-c3ccc4ccccc4c3)nc3ccccc23)cc1`, 0.51 µM; to `Oc1c(CN2CCCCC2)cc(Nc2cc(-c3ccc4ccccc4c3)nc3ccccc23)cc1CN1CCCCC1`, 0.0015 µM.

The next series is described as follows: Acid dissociation constant was evaluated. The format is ADME.
Conditions: not given
`CN(C)CCN(C)c1cc(-c2ccc3ccccc3c2)nc2ccccc12` yielded a pKa of 6.2. On the same count and under the same terms, under `CN1CCN(Cc2cc(Nc3cc(-c4ccc5ccccc5c4)nc4ccccc34)cc(CN3CCN(C)CC3)c2O)CC1` stands 6.9; under `CN(C)CCOc1cc(-c2ccc3ccccc3c2)nc2ccccc12`, 6.1. As for `CN(C)CCNC(=O)c1cc(-c2ccc3ccccc3c2)nc2ccccc12`, the pKa stood at 2.9.
